Measured values reported in publication PMC4479967 (Journal of molecular neuroscience : MN, 2015).
“Also recorded” adds a separate entry of the source.

Key:
AR42J cells = details: cited from earlier work
[1] = tested on: EGFR tyrosine phosphorylation in NCI-H727 cells; assay: EGFR tyrosine phosphorylation; assay type: cell-based, human; details: for Significance of inhibition of CCK-8-induced EGFR tyrosine phosphorylation: Fig. 2B; for Inhibition of CCK-8-induced EGFR tyrosine phosphorylation, in words: NCI-H727 cells, concentration not given at this place
[2] = tested on: ERK tyrosine phosphorylation in NCI-H727 cells; assay: ERK tyrosine phosphorylation; assay type: cell-based, human; details: for Inhibition of CCK-8-induced ERK tyrosine phosphorylation: Fig. 2C; for Inhibition of CCK-8-induced ERK phosphorylation, in words / Inhibition of CCK-8-induced ERK phosphorylation (T. Moody, unpublished): NCI-H727 cells; for Inhibition of CCK-8-induced ERK phosphorylation, in words: concentration not given at this place
[3] = tested on: cytosolic Ca2+ in NCI-H727 cells; assay: Cytosolic Ca2+ in Fura-2AM loaded NCI-H727 cells; assay type: cell-based, human; details: for Effect on basal cytosolic Ca2+: CI-988 1 µM (Fig. 3D), L-364,718 concentration not printed (Fig. 3C)
[4] = tested on: reactive oxygen species in NCI-H727 cells; assay: Reactive oxygen species in NCI-H727 cells; assay type: cell-based, human; details: CI-988 (10 µM, Table II), Tiron unpublished (T. Moody)
SCLC = details: basal or CCK-8-stimulated growth; ref Moody and Jensen, 2001; cited from earlier work
NCI-H727 cells [5] = assay: MTT proliferation assay, NCI-H727 cells
NCI-H727 cells [6] = assay: Clonogenic assay, clonal growth of NCI-H727 cells; details: for Effect on CCK-8-stimulated increase in colony number: CI-988 3 µM or gefitinib 1 µM, CCK-8 10 nM
[7] = tested on: TGF α secretion from NCI-H727 cells; assay: TGF α secretion from NCI-H727 cells; assay type: cell-based, human; details: preliminary data, T. Moody unpublished
CCK1R = details: ref Jensen et al., 1989; cited from earlier work
SCLC cells = details: ref Staley et al., 1990; cited from earlier work
CCK2R = details: ref Innes and Snyder, 1980; cited from earlier work
NCI-H510 cells = details: 0.1 µM; ref Sethi et al., 1993; cited from earlier work
GLC19 cells = details: literature discussion, ref Sethi et al., 1993; cited from earlier work
[8] = cited from earlier work
[9] = 10 µM as printed in legend (Fig. 4C)
[10] = 5 mM NAC or Tiron (Fig. 4A, B), p < 0.05 relative to CCK-8

Molecule: COc1cc2ncnc(Nc3cccc(Cl)c3)c2cc1OC [AG1478]
- Effect on CCK-8-induced EGFR and ERK tyrosine phosphorylation in AR42J cells (AR42J cells; ref Piiper et al., 2003): inhibited

Molecule: C[C@](Cc1c[nH]c2ccccc12)(NC(=O)OC1[C@H]2C[C@@H]3C[C@@H](C[C@H]1C3)C2)C(=O)NC[C@H](NC(=O)CCC(=O)O)c1ccccc1 (stereo partly drawn) [CI-988]
- Inhibition of CCK-8-induced EGFR tyrosine phosphorylation ([1]; CI-988 1 µM vs 0.1 µM CCK-8 (Fig. 2A)): weakly
- Significance of inhibition of CCK-8-induced EGFR tyrosine phosphorylation ([1]; CI-988 1 µM): not 1 µM
- Inhibition of CCK-8-induced EGFR tyrosine phosphorylation ([1]; CI-988 10 µM vs 0.1 µM CCK-8 (Fig. 2A)): strongly
- Significance of inhibition of CCK-8-induced EGFR tyrosine phosphorylation ([1]; CI-988 10 µM, p < 0.01 relative to CCK-8): significantly inhibited
- Inhibition of CCK-8-induced EGFR tyrosine phosphorylation, in words [1]: blocked; also recorded: significantly inhibited
- Effect on total EGFR ([1]; Western blot, Fig. 2A): no effect
- Antagonism of gastrin-17-induced EGFR tyrosine phosphorylation ([1]; data not shown): antagonized
- Inhibition of CCK-8-induced ERK tyrosine phosphorylation ([2]; CI-988 1 µM): not 1 µM
- Inhibition of CCK-8-induced ERK tyrosine phosphorylation ([2]; CI-988 10 µM, p < 0.05 relative to CCK-8): significantly inhibited
- Inhibition of CCK-8-induced ERK phosphorylation, in words [2]: significantly inhibited
- Inhibition of CCK-8-induced ERK phosphorylation (T. Moody, unpublished) [2]: blocked
- Effect on total ERK ([2]; Western blot, Fig. 2A): no effect
- Antagonism of gastrin-17-induced ERK tyrosine phosphorylation ([2]; data not shown): antagonized
- Effect on basal cytosolic Ca2+ [3]: no effect
- Inhibition of CCK-8-induced ROS increase, in words [4]: blocked significantly; also recorded: inhibited
- Effect on SCLC growth (SCLC): inhibit
- Potentiation of growth inhibitory effects of gefitinib (NCI-H727 cells [5]; NCI-H727 cells): potentiated the growth inhibitory effects of gefitinib
- Colony number + 10 nM CCK-8 (NCI-H727 cells [6]; CI-988 3 uM + 10 nM CCK-8 (CCK-8 alone 74 ± 9), mean ± S.D. of 3 determinations): 44 ± 5
- Effect on CCK-8-stimulated increase in colony number (NCI-H727 cells [6]): reversed
- Colony number (NCI-H727 cells [6]; CI-988 3 uM, no CCK-8, control 42± 6, mean ± S.D. of 3 determinations, 2 weeks): 21 ± 3
- Reduction of colony number (NCI-H727 cells [6]; CI-988 (3 µM), no CCK-8): 50%
- Effect on NCI-H727 proliferation, in words (NCI-H727 cells [6]; NCI-H727 cells): inhibit proliferation
- Effect on basal growth or growth stimulated by CCK-8, in words (NCI-H727 cells [6]; NCI-H727 cells): inhibited the basal growth of NCI-H727 cells or that stimulated by CCK-8

Molecule: CNC(=O)[C@H](Cc1c[nH]c2ccccc12)NC(=O)[C@@H](CC(=O)NO)CC(C)C [GM6001]
- Effect on basal EGFR tyrosine phosphorylation [1, 9]: no effect
- Inhibition of CCK-8-induced EGFR tyrosine phosphorylation ([1]; GM6001 1 µM as printed in text (Fig. 4C, D), p < 0.01 relative to CCK-8): significantly inhibited
- Inhibition of CCK-8-induced EGFR transactivation ([1]; GM6001 10 µM as printed in legend of Fig. 4C): inhibited the increase in EGFR transactivation
- Inhibition of CCK-8-induced EGFR tyrosine phosphorylation, in words [1]: blocked; also recorded: significantly inhibited
- Inhibition of CCK-8-induced ERK phosphorylation, in words [2]: significantly inhibited
- Effect on CCK-8-stimulated secretion of TGF α [7]: inhibits

Molecule: COc1cc2ncnc(Nc3ccc(F)c(Cl)c3)c2cc1OCCCN1CCOCC1 [Gefitinib]
- Increase in cytotoxicity of gefitinib in presence of CI-988 (NCI-H727 cells [5]; gefitinib with CI-988): approximately an order of magnitude
- Effect on CCK-8-stimulated increase in colony number (NCI-H727 cells [6]): reversed
- Effect on basal growth or growth stimulated by CCK-8, in words (NCI-H727 cells [6]; NCI-H727 cells): inhibited the basal growth of NCI-H727 cells or that stimulated by CCK-8
- Reduction of colony number (NCI-H727 cells [6]; gefitinib (1 µM), no CCK-8): 37%

Molecule: CN1C(=O)[C@@H](NC(=O)c2cc3ccccc3[nH]2)N=C(c2ccccc2)c2ccccc21 [L-364,718]
- Effect on basal cytosolic Ca2+ [3]: no effect
- CCK1R antagonism, in words (CCK1R): antagonized
- Antagonism of effects of CCK-8 on SCLC cells (SCLC cells): not L-364,718

Molecule: Cc1cccc(NC(=O)N[C@@H]2N=C(c3ccccc3)c3ccccc3N(C)C2=O)c1 [L-365,260]
- CCK2R antagonism, in words (CCK2R): antagonized
- Effect on SCLC growth (SCLC): inhibit
- Antagonism of effects of CCK-8 on SCLC cells (SCLC cells): blocked

Molecule: CC(=O)N[C@@H](CS)C(=O)O [NAC, N-acetylcysteine]
- Effect on basal EGFR tyrosine phosphorylation ([1]; 5 mM (Fig. 4A)): no effect
- Inhibition of CCK-8-induced EGFR transactivation [1, 10]: inhibited significantly; also recorded: inhibited the increase in EGFR transactivation

Molecule: COc1cccc(-c2cc(=O)c3ccccc3o2)c1N [PD98059]
- Inhibition of CCK-8-induced ERK phosphorylation (T. Moody, unpublished) [2]: blocked

Molecule: CC(C)(C)n1nc(-c2ccc(Cl)cc2)c2c(N)ncnc21 [PP2]
- Inhibition of CCK-8-induced EGFR tyrosine phosphorylation ([1]; 10 µM PP2 (Fig. 4C, D), p < 0.01 relative to CCK-8): significantly inhibited; also recorded: inhibited the increase in EGFR transactivation
- Effect on basal EGFR tyrosine phosphorylation [1, 9]: no effect
- Inhibition of CCK-8-induced EGFR tyrosine phosphorylation, in words [1]: blocked; also recorded: significantly inhibited
- Inhibition of CCK-8-induced ERK phosphorylation, in words [2]: significantly inhibited
- Effect on CCK-8-stimulated increase in P-Src and P-ERK in AR42J cells (AR42J cells; ref Ferrand et al., 2006): inhibited

Molecule: O=S(=O)(O)c1cc(O)c(O)c(S(=O)(=O)O)c1 [Tiron]
- Effect on basal EGFR tyrosine phosphorylation ([1]; 5 mM (Fig. 4A)): no effect
- Inhibition of CCK-8-induced EGFR transactivation [1, 10]: inhibited significantly; also recorded: inhibited the increase in EGFR transactivation
- Inhibition of CCK-8-induced EGFR tyrosine phosphorylation, in words [1]: inhibited
- Inhibition of CCK-8-induced EGFR tyrosine phosphorylation, in words ([1]; listed as tiron): blocked
- Inhibition of CCK-8-induced ROS increase, in words [4]: inhibited

Molecule: EGF: epidermal growth factor, EGFR ligand (NSDSECPLSHDGYCLHDGVCMYIEALDKYACNCVVGYIGERCQYRDLKWWELR; UniProt P01133 971-1023, looked up)
- EGFR tyrosine phosphorylation, in words ([1]; 0.1 µM (100 nM) ligand, 2 min, NCI-H727): strongly

Molecule: gastrin
- Effect on cytosolic Ca2+, in words ([3]; 10 nM, Fura-2AM, 37°C, representative of 3 others (Fig. 3A, B)): increased the cytosolic Ca^2+
- Effect on cytosolic Ca2+ in NCI-H510 cells (NCI-H510 cells): increased cytosolic Ca^2+
- Effect on cytosolic Ca2+ in GLC19 cells (GLC19 cells): no effect
- Effect on heparin binding (HB) EGF ([8]; PKC-dependent, ref Sinclair et al., 2004): increases
- Effect on COX-2 and prostaglandin E2 expression ([8]; colon cancer cells, ref Colucci et al., 2005): increases COX-2 and prostaglandin E2 expression
- Effect on MMP9 expression ([8]; gastric epithelial cells, ref Wroblewski et al., 2002): increases
- Effect on ELK-1 and COX-2 expression ([8]; intestinal epithelial cells, ref Guo et al., 2002): increased ELK-1 and COX-2 expression
- Effect on c-fos expression ([8]; ref Stepan et al., 1999): increases c-fos expression
- Effect on expression of HB-EGF and amphiregulin ([8]; ref Tsutsui et al., 1997): increases
